Assay results taken from the supplement of paper PMC9663587.

Assays:
[1] = compound: COc1cccc2c1C(=O)c1c(O)c3c(c(O)c1C2=O)C[C@@](O)(C(=O)CO)C[C@@H]3O[C@H]1C[C@H](N)[C@H](O)[C@H](C)O1 [Doxorubicin]
[2] = compound: CN(C)C/C=C/C(=O)Nc1ccc(O[C@@H]2CCC[C@@H](Nc3ncc(Cl)c(-c4c[nH]c5ccccc45)n3)C2)cc1 [BSJ-01-175]
[3] = compound: CC(C)n1nc(-c2ccc3oc(N)nc3c2)c2c(N)ncnc21 [INK128/MLN0128]
[4] = compound: Cc1nc(-c2cn3c(n2)-c2ccc(-c4cnn(C(C)(C)C(N)=O)c4)cc2OCC3)n(C(C)C)n1 [Taselisib/GDC0032]
[5] = compound: Cc1cc(Nc2ncc(Cl)c(Nc3ccccc3S(=O)(=O)C(C)C)n2)c(OC(C)C)cc1C1CCNCC1 [Ceritinib/LDK378]
[6] = compound: T1, CC(=O)c1c(C)c2cnc(Nc3ccc(N4CCN(CCOCCOCCOCCNC(=O)COc5cccc6c5C(=O)N(C5CCC(=O)NC5=O)C6=O)CC4)cn3)nc2n(C2CCCC2)c1=O [BSJ-03-123]
[7] = compound: CNCc1ccc(-c2[nH]c3cc(F)cc4c3c2CCNC4=O)cc1 [Rucaparib]
[8] = compound: O=C(CCCCCCC(=O)Nc1ccccc1)NO [Vorinostat]
[9] = compound: T2, CN(C)C/C=C/C(=O)Nc1ccc(C(=O)N2CCC[C@@H](Nc3ncc(Cl)c(-c4c[nH]c5ccccc45)n3)C2)cc1 [THZ531]
[10] = compound: CO[C@@H](C)Cn1c(=O)n(C)c2cnc3ccc(-c4cncc(C(C)(C)O)c4)cc3c21
[11] = compound: CC(=O)c1c(C)c2cnc(Nc3ccc(N4CCNCC4)cn3)nc2n(C2CCCC2)c1=O
[12] = compound: CC[C@@H]1C(=O)N(C)c2cnc(Nc3ccc(C(=O)N[C@H]4CC[C@H](N5CCN(CC6CC6)CC5)CC4)cc3OC)nc2N1C(C)C [Volasertib/BI6727]
[13] = compound: T3, CCOc1cc2ncc(C#N)c(Nc3ccc(OCc4ccccn4)c(Cl)c3)c2cc1NC(=O)/C=C/CN(C)C [Neratinib/HKI272]
[14] = compound: CC(=O)Nc1cccc(-n2c(=O)n(C3CC3)c(=O)c3c(Nc4ccc(I)cc4F)n(C)c(=O)c(C)c32)c1
[15] = compound: Cc1nc(Nc2ncc(C(=O)Nc3c(C)cccc3Cl)s2)cc(N2CCN(CCO)CC2)n1 [Dasatinib]
[16] = compound: CNC(=O)c1cccc(-c2ccc3c(N4CCOC[C@@H]4C)nc(N4CCOC[C@@H]4C)nc3n2)c1 [AZD2014]
[17] = compound: CN(C)C/C=C/C(=O)Nc1ccc(C(=O)Nc2cccc(Nc3ncc(Cl)c(-c4c[nH]c5ccccc45)n3)c2)cc1 [THZ1]; experiment: increase in dead-cell fraction, 72 h; higher = more death;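 also: breast cancer cell lines in 384-well plates, stained with Hoechst plus LIVE/DEAD far red dye and imaged, cells above an LDR intensity threshold counted dead, Hoechst-negative corpses included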
[18] = compound: T1, BSJ-03-123; experiment: as above
[19] = compound: CCc1cnn2c(NCc3ccc[n+]([O-])c3)cc(N3CCCC[C@H]3CCO)nc12; experiment: as above
[20] = compound: T2, THZ531; experiment: as above
[21] = compound: T3, Neratinib/HKI272; experiment: as above
[22] = compound: C=CC(=O)Nc1ccc(C(=O)Nc2[nH]nc3c2CN(C(=O)N[C@H](CN(C)C)c2ccccc2)C3(C)C)cc1 [YKL-5-124]; experiment: as above
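For GR50, 72 h in this document: breast cancer and non-malignant breast epithelial cell lines, Deep Dye Drop or Dye Drop imaging, nine half-log doses, GR normalized to time-zero plates and DMSO-only controls.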

With HCC1143 the “GR50, 72 h” value [1] was 0.00927 µM, the “GR50, 72 h” value [2] was 0.0506 µM and the “GR50, 72 h” value [3] was 0.0405 µM. The “GR50, 72 h” value [4] was 0.215 µM, the “GR50, 72 h” value [5] was 1.45 µM and the “GR50, 72 h” value [6] was 1.87 µM. For the same cell line, the “GR50, 72 h” value [7] was greater than 10 µM, the “GR50, 72 h” value [8] was 0.91 µM and the “GR50, 72 h” value [9] was 0.131 µM. The “GR50, 72 h” value [10] was 0.286 µM, the “GR50, 72 h” value [11] was 0.277 µM and the “GR50, 72 h” value [12] was 0.00459 µM. The “GR50, 72 h” value [13] was 0.672 µM, the “GR50, 72 h” value [14] was 0.00883 µM and the “GR50, 72 h” value [15] was 0.139 µM. The “GR50, 72 h” value [16] was 0.413 µM, the “increase in dead-cell fraction” value ([17]; 0.0001 µM) was -0.0073 and the “increase in dead-cell fraction” value ([17]; 0.0003162 µM) was -0.0031. For the same cell line, the “increase in dead-cell fraction” value ([17]; 0.001 µM) was -0.0053, the “increase in dead-cell fraction” value ([17]; 0.003162 µM) was -0.0066 and the “increase in dead-cell fraction” value ([17]; 0.01 µM) was 0.0051. The “increase in dead-cell fraction” value ([17]; 0.03162 µM) was 0.0382, the “increase in dead-cell fraction” value ([17]; 0.1 µM) was 0.162 and the “increase in dead-cell fraction” value ([17]; 0.3162 µM) was 0.192. The “increase in dead-cell fraction” value ([17]; 1 µM) was 0.165, the “increase in dead-cell fraction” value ([18]; 0.001 µM) was 0.0033 and the “increase in dead-cell fraction” value ([18]; 0.003162 µM) was 0.0019. For the same cell line, the “increase in dead-cell fraction” value ([18]; 0.01 µM) was -0.0022, the “increase in dead-cell fraction” value ([18]; 0.03162 µM) was -0.0018 and the “increase in dead-cell fraction” value ([18]; 0.1 µM) was 0.0104. For the same cell line, the “increase in dead-cell fraction” value ([18]; 0.3162 µM) was 0.011, the “increase in dead-cell fraction” value ([18]; 1 µM) was 0.0065 and the “increase in dead-cell fraction” value ([18]; 3.162 µM) was 0.0186. The “increase in dead-cell fraction” value ([18]; 10 µM) was 0.102, the “increase in dead-cell fraction” value ([19]; 0.0001 µM) was -0.0025 and the “increase in dead-cell fraction” value ([19]; 0.0003162 µM) was -0.0033. The “increase in dead-cell fraction” value ([19]; 0.001 µM) was 0.0002, the “increase in dead-cell fraction” value ([19]; 0.003162 µM) was -0.0039 and the “increase in dead-cell fraction” value ([19]; 0.01 µM) was 0.006. The “increase in dead-cell fraction” value ([19]; 0.03162 µM) was 0.248, the “increase in dead-cell fraction” value ([19]; 0.1 µM) was 0.258 and the “increase in dead-cell fraction” value ([19]; 0.3162 µM) was 0.254. The “increase in dead-cell fraction” value ([19]; 1 µM) was 0.239, the “increase in dead-cell fraction” value ([20]; 0.0001 µM) was 0.0046 and the “increase in dead-cell fraction” value ([20]; 0.0003162 µM) was 0.0047. For the same cell line, the “increase in dead-cell fraction” value ([20]; 0.001 µM) was 0.0003, the “increase in dead-cell fraction” value ([20]; 0.003162 µM) was 0.0002 and the “increase in dead-cell fraction” value ([20]; 0.01 µM) was -0.0009. The “increase in dead-cell fraction” value ([20]; 0.03162 µM) was 0.0121, the “increase in dead-cell fraction” value ([20]; 0.1 µM) was 0.0256 and the “increase in dead-cell fraction” value ([20]; 0.3162 µM) was 0.117. The “increase in dead-cell fraction” value ([20]; 1 µM) was 0.134, the “increase in dead-cell fraction” value ([21]; 0.0003162 µM) was 0.003 and the “increase in dead-cell fraction” value ([21]; 0.001 µM) was 0.0005. The “increase in dead-cell fraction” value ([21]; 0.003162 µM) was 0.006, the “increase in dead-cell fraction” value ([21]; 0.01 µM) was 0.0143 and the “increase in dead-cell fraction” value ([21]; 0.03162 µM) was 0.0116. For the same cell line, the “increase in dead-cell fraction” value ([21]; 0.1 µM) was 0.0306, the “increase in dead-cell fraction” value ([21]; 0.3162 µM) was 0.0437 and the “increase in dead-cell fraction” value ([21]; 1 µM) was 0.0748. The “increase in dead-cell fraction” value ([21]; 3.162 µM) was 0.261, the “increase in dead-cell fraction” value ([22]; 0.001 µM) was 0.0369 and the “increase in dead-cell fraction” value ([22]; 0.003162 µM) was 0.0319. For the same cell line, the “increase in dead-cell fraction” value ([22]; 0.01 µM) was 0.0518, the “increase in dead-cell fraction” value ([22]; 0.03162 µM) was 0.0428 and the “increase in dead-cell fraction” value ([22]; 0.1 µM) was 0.0477. For the same cell line, the “increase in dead-cell fraction” value ([22]; 0.3162 µM) was 0.0836, the “increase in dead-cell fraction” value ([22]; 1 µM) was 0.0896 and the “increase in dead-cell fraction” value ([22]; 3.162 µM) was 0.0668. The “increase in dead-cell fraction” value ([22]; 10 µM) was 0.121.
